Reference: the supplement of paper PMC10307832

What was measured:
Experiment in all cases: relative viability (nuclei count vs DMSO), 5 days (fraction); higher = more cells survive
Bortezomib + Linsitinib = compound: CC(C)C[C@H](NC(=O)[C@H](Cc1ccccc1)NC(=O)c1cnccn1)B(O)O [Bortezomib] + C[C@]1(O)C[C@@H](c2nc(-c3ccc4ccc(-c5ccccc5)nc4c3)c3c(N)nccn32)C1 [Linsitinib] (partner 1 µM)
Summary of the method: (§1)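 Lung cancer cell lines were pin-tool dosed in 1536-well plates on the day after seeding, with either a lone drug or a fixed anchor-drug dose plus five library-drug doses (not always all listed) in √10 steps. Nuclei were counted on 4× images after 5 days. Relative viability is the ratio of treated-well to vehicle-well nuclei counts, with each value a median of duplicate plates.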

Obatoclax + Bortezomib = compound: COC1=CC(c2cc3ccccc3[nH]2)=N/C1=C\c1[nH]c(C)cc1C [Obatoclax] + CC(C)C[C@H](NC(=O)[C@H](Cc1ccccc1)NC(=O)c1cnccn1)B(O)O [Bortezomib] (partner 0.002 µM)
Summary of the method: as §1

Obatoclax + Navitoclax = compound: COC1=CC(c2cc3ccccc3[nH]2)=N/C1=C\c1[nH]c(C)cc1C [Obatoclax] + CC1(C)CCC(c2ccc(Cl)cc2)=C(CN2CCN(c3ccc(C(=O)NS(=O)(=O)c4ccc(N[C@H](CCN5CCOCC5)CSc5ccccc5)c(S(=O)(=O)C(F)(F)F)c4)cc3)CC2)C1 [Navitoclax] (partner 0.5 µM)
Summary of the method: as §1

Obatoclax + Decitabine = compound: COC1=CC(c2cc3ccccc3[nH]2)=N/C1=C\c1[nH]c(C)cc1C [Obatoclax] + Nc1ncn([C@H]2C[C@H](O)[C@@H](CO)O2)c(=O)n1 [Decitabine] (partner 2 µM)
Summary of the method: as §1

| Cell Line | relative viability (Bortezomib + Linsitinib; first compound 0.0002 µM) | relative viability (Bortezomib + Linsitinib; first compound 0.000632 µM) | relative viability (Bortezomib + Linsitinib; first compound 0.002 µM) | relative viability (Bortezomib + Linsitinib; first compound 0.006325 µM) | relative viability (Bortezomib + Linsitinib; first compound 0.02 µM) | relative viability (Obatoclax + Bortezomib; first compound 0.01 µM) | relative viability (Obatoclax + Bortezomib; first compound 0.03162 µM) | relative viability (Obatoclax + Bortezomib; first compound 0.1 µM) | relative viability (Obatoclax + Bortezomib; first compound 0.3162 µM) | relative viability (Obatoclax + Bortezomib; first compound 1 µM) | relative viability (Obatoclax + Navitoclax; first compound 0.01 µM) | relative viability (Obatoclax + Navitoclax; first compound 0.03162 µM) | relative viability (Obatoclax + Navitoclax; first compound 0.1 µM) | relative viability (Obatoclax + Navitoclax; first compound 0.3162 µM) | relative viability (Obatoclax + Navitoclax; first compound 1 µM) | relative viability (Obatoclax + Decitabine; first compound 0.01 µM) | relative viability (Obatoclax + Decitabine; first compound 0.03162 µM) | relative viability (Obatoclax + Decitabine; first compound 0.1 µM) | relative viability (Obatoclax + Decitabine; first compound 0.3162 µM) | relative viability (Obatoclax + Decitabine; first compound 1 µM) |
| --- | --- | --- | --- | --- | --- | --- | --- | --- | --- | --- | --- | --- | --- | --- | --- | --- | --- | --- | --- | --- |
| HCC-15 | 0.815 | 0.947 | 0.91 | 0.504 | 0.0972 | 0.973 | 1.02 | 0.926 | 0.957 | 0.739 | 0.726 | 0.726 | 0.645 | 0.569 | 0.469 | 0.678 | 0.568 | 0.509 | 0.615 | 0.434 |
| SK-LU-1 | 0.986 | 1.04 | 1.42 | 0.174 | 0.159 | 1.15 | 1.05 | 0.44 | 1.05 | 0.75 | 0.753 | 0.871 | 0.424 | 0.222 | 0.216 | 0.682 | 0.567 | 0.454 | 0.478 | 0.363 |
| NCI-H2023 | 0.68 | 0.723 | 0.711 | 0.102 | 0.0845 | 1.03 | 1.08 | 0.808 | 0.675 | 0.425 | 0.96 | 1.02 | 0.911 | 0.906 | 0.612 | 0.216 | 0.203 | 0.222 | 0.159 | 0.0785 |
| HCC-366 | 0.494 | 0.574 | 0.677 | 0.51 | 0.0152 | 1.06 | 1 | 1.08 | 0.88 | 1.04 | 0.969 | 1.03 | 1.05 | 0.988 | 1.01 | 0.318 | 0.271 | 0.306 | 0.347 | 0.274 |
| NCI-H1355 | 0.85 | 0.777 | 0.615 | 0.837 | 0.124 | 1.23 | 1.11 | 1.09 | 1.06 | 1.21 | 0.883 | 0.976 | 0.953 | 0.885 | 0.91 | 0.368 | 0.347 | 0.338 | 0.334 | 0.335 |
| SW 1573 | 0.663 | 0.775 | 0.766 | 0.144 | 0.0774 | 1.04 | 0.998 | 0.925 | 0.895 | 0.476 | 1.04 | 0.788 | 0.989 | 0.937 | 0.267 | 0.432 | 0.434 | 0.437 | 0.139 | 0.194 |
| LU99A | 0.55 |  | 0.599 | 0.337 | 0.149 | 1.12 | 1.13 | 1.03 | 0.357 | 0.224 | 0.855 | 0.788 | 0.831 | 0.501 | 0.545 | 0.915 | 0.89 |  | 0.847 | 0.976 |
| LCLC-97TM1 | 0.187 | 0.17 | 0.14 | 0.146 | 0.111 | 0.735 | 0.449 | 0.439 | 0.619 | 0.213 | 0.38 | 0.439 | 0.387 | 0.346 | 0.474 | 0.216 | 0.197 | 0.196 | 0.214 | 0.192 |
| LC-2-ad | 0.798 |  | 0.811 | 0.151 | 0.127 | 0.979 | 0.98 | 0.98 | 0.785 | 0.339 | 0.359 | 0.446 | 0.311 | 0.26 | 0.145 | 0.706 | 0.784 | 0.82 | 0.742 | 0.847 |
| HOP-62 | 1.04 | 1.02 | 0.352 | 0.465 | 0.052 | 0.909 | 0.787 | 0.639 | 0.739 | 0.719 | 1.06 | 1.01 | 1.01 | 0.989 | 0.932 | 0.257 | 0.177 | 0.206 | 0.277 | 0.214 |
| NCI-H2347 | 0.93 | 0.92 | 0.848 | 0.29 | 0.325 | 0.935 | 0.859 | 1.07 |  | 0.95 | 0.724 | 0.781 | 0.698 | 0.602 | 0.877 | 0.607 | 0.561 | 0.579 | 0.563 | 0.653 |
| NCI-H2087 | 0.944 | 1.15 | 0.764 | 0.11 | 0.215 | 0.645 | 0.775 | 0.665 | 0.779 | 0.335 | 0.9 | 0.857 | 0.866 | 0.438 | 0.196 | 0.215 | 0.254 | 0.34 | 0.135 | 0.142 |
| EPLC-272H |  |  | 1.26 | 1.29 | 0.109 | 0.833 | 0.88 | 1.05 | 0.864 | 0.894 | 1.1 | 1.16 | 1.38 | 1.03 | 1.26 | 0.368 | 0.349 | 0.43 | 0.314 | 0.303 |
| LXF-289 | 0.946 | 0.968 | 1 | 0.0941 | 0.0652 | 1.01 | 1.01 | 0.999 | 0.958 | 0.847 | 0.912 | 0.883 | 0.926 | 0.905 | 0.96 | 0.346 | 0.385 | 0.372 | 0.342 | 0.408 |
| COR-L23 | 0.994 | 0.828 | 0.495 | 0.0469 | 0.0499 | 0.962 | 1 | 0.961 | 0.461 | 0.187 | 1.08 | 1.06 | 0.883 | 0.257 | 0.2 | 0.478 | 0.404 | 0.488 | 0.235 | 0.194 |
| RERF-LC-KJ | 0.859 |  | 0.908 | 0.366 | 0.203 | 1.04 | 1.07 | 1.09 | 0.851 | 0.765 | 1.04 | 0.845 | 0.729 | 0.875 | 0.319 | 0.693 | 0.632 | 0.643 | 0.613 | 0.291 |
